Laboratory results taken from patent US9458124B2, “Substituted pyran derivatives” (Wayne State University, priority 2013, dated 2016).
Structures can show the parent of a compound that is named as a salt.

Key:
SERT = target: T1, SERT (Rattus norvegicus, UniProt P31652); experiment: SERT uptake inhibition, [3H]-5-HT, rat brain; format: biochemical; conditions: number in parentheses within cell
T1 construct: from tissue; host or cells: rat brain

DAT = target: T2, DAT (Rattus norvegicus, UniProt P23977); experiment: DAT uptake inhibition, [3H]DA, rat brain; format: biochemical; conditions: number in parentheses within cell
T2 construct: from tissue; host or cells: rat brain
T2 sequence (P23977 whole entry): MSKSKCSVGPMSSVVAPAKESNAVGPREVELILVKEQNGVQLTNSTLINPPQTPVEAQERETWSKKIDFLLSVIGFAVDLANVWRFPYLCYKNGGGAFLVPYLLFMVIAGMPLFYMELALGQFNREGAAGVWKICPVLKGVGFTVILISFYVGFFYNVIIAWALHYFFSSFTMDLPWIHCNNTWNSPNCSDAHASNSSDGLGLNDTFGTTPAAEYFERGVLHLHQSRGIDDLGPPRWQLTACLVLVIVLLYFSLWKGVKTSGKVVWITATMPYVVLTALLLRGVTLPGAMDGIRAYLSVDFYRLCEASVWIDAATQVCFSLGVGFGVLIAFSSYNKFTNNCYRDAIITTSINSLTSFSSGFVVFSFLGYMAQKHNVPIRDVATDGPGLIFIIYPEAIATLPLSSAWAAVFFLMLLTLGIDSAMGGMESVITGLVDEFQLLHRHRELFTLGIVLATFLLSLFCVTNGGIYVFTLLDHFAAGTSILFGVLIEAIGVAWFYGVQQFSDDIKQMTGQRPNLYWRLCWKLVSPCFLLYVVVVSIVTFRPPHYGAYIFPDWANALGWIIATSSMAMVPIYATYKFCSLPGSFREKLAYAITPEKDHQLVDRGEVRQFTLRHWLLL

NET = target: T3, NET (Rattus norvegicus, UniProt Q63380); experiment: NET uptake inhibition, [3H]DA, rat brain; format: biochemical; conditions: number in parentheses within cell
T3 construct: from tissue; host or cells: rat brain
T3 sequence (Q63380 1-617): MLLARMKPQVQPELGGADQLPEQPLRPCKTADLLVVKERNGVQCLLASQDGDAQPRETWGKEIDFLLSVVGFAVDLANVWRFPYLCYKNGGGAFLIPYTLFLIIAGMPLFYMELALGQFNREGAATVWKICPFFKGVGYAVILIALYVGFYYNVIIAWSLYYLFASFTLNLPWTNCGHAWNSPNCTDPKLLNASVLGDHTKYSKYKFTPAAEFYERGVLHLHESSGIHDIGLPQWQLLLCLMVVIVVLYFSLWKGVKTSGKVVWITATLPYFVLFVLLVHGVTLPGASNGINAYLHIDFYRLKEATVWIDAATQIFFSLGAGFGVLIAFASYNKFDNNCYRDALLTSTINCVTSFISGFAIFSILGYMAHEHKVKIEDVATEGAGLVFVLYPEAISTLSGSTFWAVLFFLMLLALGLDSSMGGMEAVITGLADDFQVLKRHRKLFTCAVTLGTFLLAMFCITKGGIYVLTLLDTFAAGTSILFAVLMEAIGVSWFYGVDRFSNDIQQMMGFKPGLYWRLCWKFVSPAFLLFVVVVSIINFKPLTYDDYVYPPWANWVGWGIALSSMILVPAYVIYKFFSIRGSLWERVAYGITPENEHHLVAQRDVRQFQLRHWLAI

T1 sequence (P31652 whole entry): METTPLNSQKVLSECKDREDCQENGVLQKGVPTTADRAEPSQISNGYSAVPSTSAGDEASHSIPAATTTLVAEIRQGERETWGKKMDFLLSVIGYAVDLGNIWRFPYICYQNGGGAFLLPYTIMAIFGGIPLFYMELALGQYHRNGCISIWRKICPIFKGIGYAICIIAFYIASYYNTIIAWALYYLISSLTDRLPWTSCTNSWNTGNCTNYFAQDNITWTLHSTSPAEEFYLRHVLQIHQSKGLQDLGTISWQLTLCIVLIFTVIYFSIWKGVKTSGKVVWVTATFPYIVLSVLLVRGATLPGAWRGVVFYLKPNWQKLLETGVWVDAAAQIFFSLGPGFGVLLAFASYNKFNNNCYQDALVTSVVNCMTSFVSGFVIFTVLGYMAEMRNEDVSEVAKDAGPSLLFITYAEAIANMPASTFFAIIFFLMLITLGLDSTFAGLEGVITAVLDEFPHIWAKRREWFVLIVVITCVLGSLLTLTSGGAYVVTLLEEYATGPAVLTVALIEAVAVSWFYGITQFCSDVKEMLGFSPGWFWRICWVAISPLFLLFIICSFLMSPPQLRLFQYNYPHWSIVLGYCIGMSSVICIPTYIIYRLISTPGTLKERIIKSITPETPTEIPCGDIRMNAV

Compound	Ki (SERT) [nM]	Ki (DAT) [nM]	Ki (NET) [nM]	melting point [°C]
c1ccc(C(c2ccccc2)[C@@H]2CC[C@H](NCc3ccc4occc4c3)CO2)cc1 [2a, D-484, (3S,6S)-6-benzhydryl-N-(benzofuran-5-ylmethyl)tetrahydro-2H-pyran-3-amine]	0.71 ± 0.085	81.9 ± 17.9	25.2 ± 5.3	–
c1ccc(C(c2ccccc2)[C@@H]2CC[C@H](NCc3ccc4occc4c3)CO2)cc1 (as salt: hydrochloride) [2a, D-484, (3S,6S)-6-benzhydryl-N-(benzofuran-5-ylmethyl)tetrahydro-2H-pyran-3-amine]	–	–	–	140 to 142
Oc1ccc(CN[C@@H]2CO[C@H](C(c3ccc(F)cc3)c3ccc(F)cc3)C[C@H]2O)cc1F [6n, D-531, (2S,4R,5R)-2-(bis(4-fluorophenyl)methyl)-5-((3-fluoro-4-hydroxybenzyl)amino) tetrahydro-2H-pyran-4-ol]	334 ± 54	–	–	–
Oc1cc(O)cc(CN[C@@H]2CO[C@H](C(c3ccccc3)c3ccccc3)C[C@H]2O)c1 [4f, D-542, 5-((((3R,4R,6S)-6-benzhydryl-4-hydroxytetrahydro-2H-pyran-3-yl)amino)methyl)benzene-1,3-diol]	3020	259 ± 44	152 ± 29	–
COc1cc(O)cc(CN[C@@H]2CO[C@H](C(c3ccc(F)cc3)c3ccc(F)cc3)C[C@H]2O)c1 [6g, D-526, (2S,4R,5R)-2-(bis(4-fluorophenyl)methyl)-5-((3-hydroxy-5-methoxybenzyl)amino)tetrahydro-2H-pyran-4-ol]	577 ± 94	25.6 ± 5.8	–	–
O[C@@H]1C[C@@H](C(c2ccccc2)c2ccccc2)OC[C@H]1NCc1ccc2occc2c1 [4a, D-485, (2S,4R,5R)-2-benzhydryl-5-((benzofuran-5-ylmethyl)amino)tetrahydro-2H-pyran-4-ol]	2.68 ± 0.094	234 ± 11	33.6 ± 18.7	–
COc1ccc(CN[C@@H]2CO[C@H](C(c3ccc(F)cc3)c3ccc(F)cc3)C[C@H]2O)cc1O [6i, D-528, (2S,4R,5R)-2-(bis(4-fluorophenyl)methyl)-5-((3-hydroxy-4-methoxybenzyl)amino)tetrahydro-2H-pyran-4-ol]	367 ± 52	7.94 ± 0.66	–	–
COc1cccc(CN[C@@H]2CO[C@H](C(c3ccccc3)c3ccccc3)C[C@H]2O)c1 (as salt: hydrochloride) [4g, D-523, (2S,4R,5R)-2-benzhydryl-5-((3-methoxybenzyl)amino)tetrahydro-2H-pyran-4-ol]	–	–	–	197 to 199
c1ccc(C(c2ccccc2)[C@@H]2CC[C@H](NCc3ccc4cc[nH]c4c3)CO2)cc1 [2b, D-543]	13.6 ± 1.6	56.3 ± 1.1	20.8 ± 4.6	–
O[C@@H]1C[C@@H](C(c2ccc(F)cc2)c2ccc(F)cc2)OC[C@H]1NCc1ccc2occc2c1 [6d, D-508, (2S,4R,5R)-5-((benzofuran-5-ylmethyl)amino)-2-(bis(4-fluorophenyl)methyl)tetrahydro-2H-pyran-4-ol]	68.4 ± 11.4	29.3 ± 2.4	26.5 ± 6.6	–
COc1cccc(CN[C@@H]2CO[C@H](C(c3ccccc3)c3ccccc3)C[C@H]2O)c1 [4g, D-523, (2S,4R,5R)-2-benzhydryl-5-((3-methoxybenzyl)amino)tetrahydro-2H-pyran-4-ol]	27.2 ± 3	376 ± 68	5.85 ± 1.27	–
Oc1cc(O)cc(CN[C@@H]2CO[C@H](C(c3ccccc3)c3ccccc3)C[C@H]2O)c1 (as salt: hydrochloride) [4f, D-542, 5-((((3R,4R,6S)-6-benzhydryl-4-hydroxytetrahydro-2H-pyran-3-yl)amino)methyl)benzene-1,3-diol]	–	–	–	168 to 170
O[C@@H]1C[C@@H](C(c2ccc(F)cc2)c2ccc(F)cc2)OC[C@H]1NCc1ccc2c(c1)OCO2 [6b, D-506, (2S,4R,5R)-5-((benzo[d][1,3]dioxol-5-ylmethyl)amino)-2-(bis(4-fluorophenyl)methyl)tetrahydro-2H-pyran-4-ol]	–	37 ± 7.5	–	–
CN(C)c1ccc(CN[C@@H]2CO[C@H](C(c3ccc(F)cc3)c3ccc(F)cc3)C[C@H]2O)cc1 [6o, D-536, (2S,4R,5R)-2-(bis(4-fluorophenyl)methyl)-5-((4-(dimethylamino)benzyl)amino)tetrahydro-2H-pyran-4-ol]	144 ± 26	41.3 ± 9.7	56.6 ± 5.2	–
COc1cc(CN[C@@H]2CO[C@H](C(c3ccccc3)c3ccccc3)C[C@H]2O)ccc1O [4c, D-501, (2S,4R,5R)-2-benzhydryl-5-((4-hydroxy-3-methoxybenzyl)amino)tetrahydro-2H-pyran-4-ol]	–	167 ± 36	–	–
COc1ccc(CN[C@@H]2CO[C@H](C(c3ccccc3)c3ccccc3)C[C@H]2O)cc1O [4d, D-502, (2S,4R,5R)-2-benzhydryl-5-((3-hydroxy-4-methoxybenzyl)amino)tetrahydro-2H-pyran-4-ol]	281 ± 37	58.6 ± 11.8	–	–

Compound	Ki (SERT) [nM]	Ki (DAT) [nM]	Ki (NET) [nM]	melting point [°C]
COc1cccc(CN[C@@H]2CO[C@H](C(c3ccc(F)cc3)c3ccc(F)cc3)C[C@H]2O)c1 [6e, D-524, (2S,4R,5R)-2-(bis(4-fluorophenyl)methyl)-5-((3-methoxybenzyl)amino)tetrahydro-2H-pyran-4-ol]	129 ± 25	56.8 ± 7.6	–	–
O[C@@H]1C[C@@H](C(c2ccc(F)cc2)c2ccc(F)cc2)OC[C@H]1NCc1ccc2c(c1)CCO2 [6c, D-507, (2S,4R,5R)-2-(bis(4-fluorophenyl)methyl)-5-(((2,3-dihydrobenzofuran-5-yl)methyl)amino)tetrahydro-2H-pyran-4-ol]	54 ± 7.8	17	25.8 ± 5	–
O[C@@H]1C[C@@H](C(c2ccccc2)c2ccccc2)OC[C@H]1NCc1ccc2cc[nH]c2c1 [4b, D-544, (2S,4R,5R)-5-(((1H-indol-6-yl)methyl)amino)-2-benzhydryltetrahydro-2H-pyran-4-ol]	9.6 ± 2.57	64 ± 6.1	10 ± 3.5	–
COc1ccc(CN[C@@H]2CO[C@H](C(c3ccc(F)cc3)c3ccc(F)cc3)C[C@H]2O)cn1 [6p, D-537, (2S,4R,5R)-2-(bis(4-fluorophenyl)methyl)-5-(((6-methoxypyridin-3-yl)methyl)amino)tetrahydro-2H-pyran-4-ol]	258 ± 26	20.1 ± 5.3	28.4 ± 4	–
Nc1ccc(CN[C@@H]2CO[C@H](C(c3ccc(F)cc3)c3ccc(F)cc3)C[C@H]2O)cc1 [6k, D-529, (2S,4R,5R)-5-((4-aminobenzyl)amino)-2-(bis(4-fluorophenyl)methyl) tetrahydro-2H-pyran-4-ol]	339 ± 39	24.5 ± 1.2	–	–
COc1cc(CN[C@@H]2CO[C@H](C(c3ccc(F)cc3)c3ccc(F)cc3)C[C@H]2O)ccc1O [6h, D-527, (2S,4R,5R)-2-(bis(4-fluorophenyl)methyl)-5-((4-hydroxy-3-methoxybenzyl)amino)tetrahydro-2H-pyran-4-ol]	107 ± 11	8.94 ± 2.2	–	–
COc1ccc(CN[C@@H]2CO[C@H](C(c3ccc(F)cc3)c3ccc(F)cc3)C[C@H]2O)cc1 [6a, D-473, (2S,4R,5R)-2-(bis(4-fluorophenyl)methyl)-5-((4-methoxybenzyl)amino)tetrahydro-2H-pyran-4-ol]	46.7 ± 17	13.3 ± 2	13.2 ± 3.5	–
COc1cc(O)cc(CN[C@@H]2CO[C@H](C(c3ccccc3)c3ccccc3)C[C@H]2O)c1 (as salt: hydrochloride) [4e, D-503, (2S,4R,5R)-2-benzhydryl-5-((3-hydroxy-5-methoxybenzyl)amino)tetrahydro-2H-pyran-4-ol]	–	–	–	160 to 162
c1ccc(C(c2ccccc2)[C@@H]2CC[C@H](NCc3ccc4cc[nH]c4c3)CO2)cc1 (as salt: oxalate) [2b, D-543]	–	–	–	194 to 196
CCNc1ccc(CN[C@@H]2CO[C@H](C(c3ccc(F)cc3)c3ccc(F)cc3)C[C@H]2O)cc1 [6m, D-530, (2S,4R,5R)-2-(bis(4-fluorophenyl)methyl)-5-((4-(ethylamino)benzyl)amino) tetrahydro-2H-pyran-4-ol]	320 ± 40	–	–	–
COc1cc(CN[C@@H]2CO[C@H](C(c3ccccc3)c3ccccc3)C[C@H]2O)ccc1O (as salt: hydrochloride) [4c, D-501, (2S,4R,5R)-2-benzhydryl-5-((4-hydroxy-3-methoxybenzyl)amino)tetrahydro-2H-pyran-4-ol]	–	–	–	203 to 205
COc1ccc(CN[C@@H]2CO[C@H](C(c3ccccc3)c3ccccc3)C[C@H]2O)cc1O (as salt: hydrochloride) [4d, D-502, (2S,4R,5R)-2-benzhydryl-5-((3-hydroxy-4-methoxybenzyl)amino)tetrahydro-2H-pyran-4-ol]	–	–	–	168 to 170
O[C@@H]1C[C@@H](C(c2ccccc2)c2ccccc2)OC[C@H]1NCc1ccc2cc[nH]c2c1 (as salt: oxalate) [4b, D-544, (2S,4R,5R)-5-(((1H-indol-6-yl)methyl)amino)-2-benzhydryltetrahydro-2H-pyran-4-ol]	–	–	–	152 to 154
COc1cc(O)cc(CN[C@@H]2CO[C@H](C(c3ccccc3)c3ccccc3)C[C@H]2O)c1 [4e, D-503, (2S,4R,5R)-2-benzhydryl-5-((3-hydroxy-5-methoxybenzyl)amino)tetrahydro-2H-pyran-4-ol]	385 ± 42	209 ± 25	–	–
O[C@@H]1C[C@@H](C(c2ccccc2)c2ccccc2)OC[C@H]1NCc1ccc2occc2c1 (as salt: hydrochloride) [4a, D-485, (2S,4R,5R)-2-benzhydryl-5-((benzofuran-5-ylmethyl)amino)tetrahydro-2H-pyran-4-ol]	–	–	–	204 to 206
